Earlier results in US9034830B2, “Methods and compositions for sustained delivery of drugs” (INTRATUS, INC., priority 2009, dated 2015).

System: patients

Brc1c(NC2=NCCN2)ccc2nccnc12 [Brimonidine]
more patients who had to discontinue due to lack of clinical effect (0.2% eye drop, FDA clinical data): 30% | drop in intraocular pressure (eye drop, dosed at least two times a day): ~24% | patients with side-effects (itching, redness, intolerance) necessitating stoppage of the drug (eye drop, per FDA data): up to 20%
